# Experimental data as given in publication PMC9578396, “Intrinsic Antibacterial Activity of Xeruborbactam In Vitro: Assessing Spectrum and Mode of Action” (Antimicrobial Agents and Chemotherapy, 2022).
# Several values for one entry are separate records, joined by “and”; a condition that tells them apart may be missing. Identical values can stand only once. Like-named read-outs stand apart in the source and are kept apart here.
# Tested on: Klebsiella pneumoniae
# Assay: microbe, parasite or virus in culture
# Type: cell-based
# Conditions: for MIC90 / MIC50 / MIC: Klebsiella pneumoniae; for MIC90: read-out: MIC90
# Procedure, shortened: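 MICs by CLSI broth microdilution in in-house panels. Strains tested were engineered strains carrying porin and efflux mutation combinations, KPC-producing clinical isolates and derivatives cured of KPC plasmids, and KPC-producing clinical isolates enriched for porin mutations.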
# [1] = KPC-producing clinical strains with functional OmpK36, alone
# [2] = KPC-producing clinical strains with nonfunctional OmpK36, alone
# [3] = KPC-producing clinical strains, all strains (n = 141), alone
compound,measurement,setting,value
O=C(O)c1c(F)ccc2c1OB(O)[C@@H]1C[C@H]21 [Xeruborbactam],MIC90,"K. pneumoniae ESBL phenotype, 157 isolates",16 µg/mL
same,MIC50,[1],16 µg/mL
same,MIC90,[1],> 16 µg/mL
same,MIC50,[2],> 16 µg/mL
same,MIC90,[2],> 16 µg/mL
same,MIC50,[3],> 16 µg/mL
same,MIC90,[3],> 16 µg/mL
same,MIC,"KPM1026a (no beta-lactamase), xeruborbactam 0 µg/ml, read-out: MIC",16 µg/mL
same,MIC,"KPM1026a, alone, read-out: MIC",16 µg/mL
same,MIC,"KPM1026a, parent, read-out: MIC",16 µg/mL
same,MIC,"KPM1211 (KP1074 after loss of pKpQIL), read-out: MIC",16 to 32 µg/mL
same,MIC,"KPM1271 (KPC-3; wild type), alone, read-out: MIC",16 µg/mL
same,MIC,"KPM1271 (KPM1026a/KPC-3), alone, read-out: MIC",16 µg/mL
same,MIC,"KPM1272 (KPC-3; ramR_fs), alone, read-out: MIC",16 µg/mL
same,MIC,"KPM1273 (KPC-3; ramR_fs ompK36_1171), alone, read-out: MIC",64 µg/mL
same,MIC,"KPM1281 (KPM1026a/NDM-1), alone, read-out: MIC",16 µg/mL
same,MIC,"KPM2067 (KPC-3; ompK36_fs), alone, read-out: MIC",16 µg/mL
same,MIC,"KPM2601 (KPC-3; ΔompK35), alone",16 µg/mL
same,MIC,"KPM2631 (KPC-3; ompK36_fs ΔompK35), alone",32 µg/mL
same,MIC,"KPM3532 (TolQ::M189K), alone",32 µg/mL
same,MIC,"KPM3532, TolQ::M189K",32 µg/mL
same,MIC,"KPM3534 (TolQ::S31F), alone",32 µg/mL
same,MIC,"KPM3534, TolQ::S31F",32 µg/mL
same,MIC,"KPM4127 (KPM3532 TolQ::M189K/KPC-3), alone",32 µg/mL
same,MIC,"KPM4128 (KPM3534 TolQ::S31F/KPC-3), alone",32 µg/mL
same,MIC,"KPM4129 (KPM3532 TolQ::M189K/NDM-1), alone",32 µg/mL
same,MIC,"KPM4130 (KPM3534 TolQ::S31F/NDM-1), alone",32 µg/mL
same,MIC,"KPM4235, TolQ::IP(183–1844)PR",32 µg/mL
same,MIC,"KPM4236, TolQ::TAA at aa 103",32 µg/mL
same,MIC,"KPM4238, TolQ::S25F",32 µg/mL
same,MIC,"KPM4239, TolQ::S28F",32 µg/mL
same,MIC,"KPM4240, TolQ::S25Y",32 µg/mL
same,MIC,"Klebsiella pneumoniae isolates, read-out: highest MIC observed",64 µg/mL
same,MIC,"clinical isolate KP1004, OmpK35 NF, OmpK36 FN, read-out: MIC",16 µg/mL
same,MIC,"clinical isolate KP1070, OmpK35 NF, OmpK36 FN, read-out: MIC",8 µg/mL
same,MIC,"clinical isolate KP1074, OmpK35 NF, OmpK36 PFN (GD), read-out: MIC",32 µg/mL
same,MIC,"clinical isolate KP1093, OmpK35 NF, OmpK36 PFN (GD), read-out: MIC",32 µg/mL
same,MIC,"clinical isolate KP1251, OmpK35 NF, OmpK36 FN, read-out: MIC",16 µg/mL
same,MIC,"clinical isolate KP1274, OmpK35 FN, OmpK36 FN, read-out: MIC",8 µg/mL
same,MIC,"clinical isolate KP1463, OmpK35 NF, OmpK36 NF, read-out: MIC",64 µg/mL
same,MIC,"clinical isolate KP1469, OmpK35 NF, OmpK36 NF, read-out: MIC",64 µg/mL
same,MIC,"clinical isolate KP1598, OmpK35 NF, OmpK36 PFN (GD), read-out: MIC",64 µg/mL
same,MIC,"strain KPM1026a measured at 30°C (Fig. 6), read-out: MIC",32 µg/mL
same,MIC,"strain KPM1026a, wild type, read-out: MIC",16 µg/mL
same,MIC,"strain KPM1026a, read-out: MIC",16 µg/mL
same,MIC,"strain KPM1027, ramR, read-out: MIC",16 µg/mL
same,MIC,"strain KPM1171, lacks porins and overexpresses AcrAB",64 µg/mL
same,MIC,"strain KPM1171, ramR ompK36_1171, read-out: MIC",64 µg/mL
same,MIC,"strain KPM2040, ompK36_2040, read-out: MIC",16 µg/mL
same,MIC,"strain KPM2600, ΔompK35",16 µg/mL
same,MIC,"strain KPM2613, ΔompK35 ompK36_2040",32 µg/mL
same,MIC,"strain KPM2696, ΔacrB",16 µg/mL
same,percentage of strains with xeruborbactam MIC values ≥32 µg/ml,OmpK35 full-length (n=118),31.4%
same,percentage of strains with xeruborbactam MIC values ≥32 µg/ml,"OmpK35 full-length, OmpK36 GD (n=11)",82%
same,percentage of strains with xeruborbactam MIC values ≥32 µg/ml,"OmpK35 full-length, OmpK36 full length (n=82)",6.1%
same,percentage of strains with xeruborbactam MIC values ≥32 µg/ml,"OmpK35 full-length, OmpK36 non-functional (n=25)",92%
same,percentage of strains with xeruborbactam MIC values ≥32 µg/ml,OmpK35 non-functional (n=318),49%
same,percentage of strains with xeruborbactam MIC values ≥32 µg/ml,"OmpK35 non-functional, OmpK36 GD (n=149)",74.5%
same,percentage of strains with xeruborbactam MIC values ≥32 µg/ml,"OmpK35 non-functional, OmpK36 full length (n=130)",3.4%
same,percentage of strains with xeruborbactam MIC values ≥32 µg/ml,"OmpK35 non-functional, OmpK36 non-functional (n=39)",95%
same,percentage of strains with xeruborbactam MIC values ≥32 µg/ml,OmpK36 GD (n=160),75%
same,percentage of strains with xeruborbactam MIC values ≥32 µg/ml,OmpK36 non-functional (n=65),92.3% and 92%
same,fold MIC increase,inactivation of ompK36 alone or in combination with ompK35,2 fold and 2- to 4 fold
same,fold MIC increase,strain KPM1171 vs wild type,4 fold
